According to patent publication US20240173442A1, “COMBINATION THERAPY” (Hoffmann-La Roche Inc., priority 2021, published 2024):

Tests used:
[1] = Protocol 119: body weight, adverse events and toxicity; type: in vivo
[2] = Protocol 136: body weight, adverse events and toxicity; type: in vivo, B6-huCEA mice
Excerpt: (§1) Primary solid xenografts were established in each B6-huCEA or huCEACAM5 mouse on study day 0 through subcutaneous (SC) or intrapancreatic injection of carcinoembryonic antigen (CEA)-expressing tumor cells. […] Indications of pain, distress, or discomfort include, but are not limited to, acute body weight (BW) loss, scruffy fur, diarrhea, hunched posture, pale skin, and reluctance to move. Poor SC tumor status (e.g. ulceration, teeth marks, or open wounds) may also prompt euthanasia; in the orthotopic model, abdominal swelling indicates increasing tumor burden, which may prompt euthanasia.
(§2) SC tumor volumes were estimated through manual calipering 3 times per week, calculated according to the formula: volume 0.5× length×width^2. Additional tumor measurements were made as needed depending on the tumor growth rate. In the orthotopic model, the tumor progress was assessed regularly through bioluminescence imaging (BLI). The BW of the animals was measured at least 3 times per week, with additional measurements as needed depending on the health status. Mice whose BW loss exceeded 20% of their initial BW or whose tumor volume reached 3000 mm^3 (Protocols 119, 136, 150) or 2000 mm^3 (Protocol 195) were euthanized immediately.
No mice were euthanized due to acute post-injection BW loss; 1 tumor-free CEA-PRIT mouse was euthanized on day 117 after a sudden decline in overall status. […]

[3] = Protocol 195: body weight, adverse events and toxicity; type: in vivo
[4] = Protocol 150: body weight, adverse events and toxicity; type: in vivo
Excerpt: as §1, §2
No mice were euthanized due to acute post-injection BW loss.
Reactions included sluggish behaviour, somnolence, and death in 1/14 mice. […]

In the case of NC(=O)CN1CCN(CC(N)=O)CCN(CC(N)=O)CCN(CC(N)=O)CC1.[212Pb+2] [^212Pb-DOTAM], the body weight change [1] is reported as “transient weight loss in irradiated mice”, the body weight change [2] is reported as “transient weight loss in irradiated mice” and the body weight change [3] is reported as “did not cause any significant weight loss by itself”. The body weight change [4] was “transient weight loss in irradiated mice”.
